In the NIST ThermoML archive (doi:10.1016/j.fluid.2008.10.003):
± gives the expanded uncertainty stated by the source.

Experiment: isobaric coefficient of expansion; xn = mol fraction of the nth substance listed
Settings: 298.15 K, calorimetric method

CCCCCCO [hexan-1-ol] + CCCCCC
isobaric coefficient of expansion
Settings | 5000 kPa | 10000 kPa | 15000 kPa | 20000 kPa | 25000 kPa
x1 = 0.0321 | 0.0013 ± 5.5e-05 1/K | 0.00124 ± 5.3e-05 1/K | 0.0012 ± 5.1e-05 1/K | 0.00115 ± 4.9e-05 1/K | 0.00111 ± 4.7e-05 1/K
x1 = 0.041 | 0.0013 ± 5.5e-05 1/K | 0.00124 ± 5.3e-05 1/K | 0.0012 ± 5.1e-05 1/K | 0.00115 ± 4.9e-05 1/K | 0.00111 ± 4.7e-05 1/K
x1 = 0.0946 | 0.00127 ± 5.4e-05 1/K | 0.00122 ± 5.2e-05 1/K | 0.00118 ± 5e-05 1/K | 0.00113 ± 4.8e-05 1/K | 0.0011 ± 4.6e-05 1/K
x1 = 0.1679 | 0.00124 ± 5.2e-05 1/K | 0.00119 ± 5e-05 1/K | 0.00115 ± 4.9e-05 1/K | 0.0011 ± 4.7e-05 1/K | 0.00107 ± 4.5e-05 1/K
x1 = 0.2153 | 0.00121 ± 5.1e-05 1/K | 0.00116 ± 4.9e-05 1/K | 0.00112 ± 4.8e-05 1/K | 0.00108 ± 4.6e-05 1/K | 0.00105 ± 4.5e-05 1/K
x1 = 0.3016 | 0.00117 ± 4.9e-05 1/K | 0.00112 ± 4.8e-05 1/K | 0.00109 ± 4.6e-05 1/K | 0.00105 ± 4.4e-05 1/K | 0.00101 ± 4.3e-05 1/K
x1 = 0.4075 | 0.00112 ± 4.8e-05 1/K | 0.00108 ± 4.6e-05 1/K | 0.00105 ± 4.5e-05 1/K | 0.00102 ± 4.3e-05 1/K | 0.000986 ± 4.2e-05 1/K
x1 = 0.503 | 0.00108 ± 4.6e-05 1/K | 0.00104 ± 4.4e-05 1/K | 0.00101 ± 4.3e-05 1/K | 0.000982 ± 4.2e-05 1/K | 0.000952 ± 4e-05 1/K
x1 = 0.594 | 0.00103 ± 4.4e-05 1/K | 0.001 ± 4.2e-05 1/K | 0.000975 ± 4.1e-05 1/K | 0.000944 ± 4e-05 1/K | 0.00092 ± 3.9e-05 1/K
x1 = 0.6827 | 0.000993 ± 4.2e-05 1/K | 0.000965 ± 4.1e-05 1/K | 0.000939 ± 4e-05 1/K | 0.000913 ± 3.9e-05 1/K | 0.00089 ± 3.8e-05 1/K
x1 = 0.8013 | 0.000938 ± 4e-05 1/K | 0.000913 ± 3.9e-05 1/K | 0.00089 ± 3.8e-05 1/K | 0.000868 ± 3.7e-05 1/K | 0.000848 ± 3.6e-05 1/K
x1 = 0.8934 | 0.000896 ± 3.8e-05 1/K | 0.000874 ± 3.7e-05 1/K | 0.000855 ± 3.6e-05 1/K | 0.000835 ± 3.5e-05 1/K | 0.000816 ± 3.5e-05 1/K
x1 = 1 | 0.00085 ± 3.6e-05 1/K | 0.000832 ± 3.5e-05 1/K | 0.000812 ± 3.4e-05 1/K | 0.000796 ± 3.4e-05 1/K | 0.00078 ± 3.3e-05 1/K
